Laboratory results as given in patent publication US10947188B2, “Small molecule ferroptosis inducers” (THE TRUSTEES OF COLUMBIA UNIVERSITY IN THE CITY OF NEW YORK, priority 2016, dated 2021).
Where two headings read alike, the source gives them in different places. Where a SMILES comes first, the peptide text is derived from it. The star is where a group is joined. Cbz = O=C(OCc1ccccc1)*

Tested on: HT-1080
Experiment: Modulatory profiling: Alamar Blue viability, lethal compound cotreated with death modulator (EC50, AUC)
Assay type: cell-based
Parameters: AUC, modulator HT.3MA / AUC, modulator HT.ALLN / AUC HT.ATA / AUC HT.ActD / AUC HT.BHA / AUC HT.BHT / AUC HT.BocD / AUC HT.CHX / AUC HT.Co2+ / AUC HT.DPQ / AUC HT.EGTA / AUC HT.Lmim / AUC HT.NAD+ / AUC HT.Nec-1 / AUC HT.SP600125 / AUC HT.TLCK / AUC HT.U0126: unit not given beside the values
Details: for AUC HT.ATA: HT-1080, modulator ATA; for AUC HT.ActD: HT-1080, modulator ActD; for AUC HT.BHA: HT-1080, modulator BHA; for AUC HT.BHT: HT-1080, modulator BHT; for AUC HT.BocD: HT-1080, modulator BocD; for AUC HT.CHX: HT-1080, modulator CHX; for AUC HT.Co2+: HT-1080, modulator Co2+; for AUC HT.CspA: HT-1080, modulator CspA; for AUC HT.DPQ: HT-1080, modulator DPQ; for AUC HT.Gd3+: HT-1080, modulator Gd3+; for AUC HT.LNAME: HT-1080, modulator LNAME; for AUC HT.Lmim: HT-1080, modulator Lmim; for AUC HT.NAD+: HT-1080, modulator NAD+; for AUC HT.NMMA: HT-1080, modulator NMMA; for AUC HT.Nec-1: HT-1080, modulator Nec-1; for AUC HT.Pepstatin: HT-1080, modulator Pepstatin; for AUC HT.SP600125: HT-1080, modulator SP600125; for AUC HT.TLCK: HT-1080, modulator TLCK; for AUC HT.U0126: HT-1080, modulator U0126; for HT.atoc (AUC) / HT.bCarotene (AUC) / HT.deferox (AUC) / HT.digoxin (AUC) / HT.trolox (AUC) / HT.zVAD (AUC): HT-1080; for HT.atoc (AUC): modulator atoc; for HT.bCarotene (AUC): modulator bCarotene; for HT.deferox (AUC): modulator deferox; for HT.digoxin (AUC): modulator digoxin; for HT.trolox (AUC): modulator trolox; for HT.zVAD (AUC): modulator zVAD; for AUC, modulator HT.3MA / AUC, modulator HT.ALLN: HT-1080 cells, modulatory profile value (AUC); for AUC, modulator HT.3MA: lethal compound cotreated with modulator 3MA; for AUC, modulator HT.ALLN: lethal compound cotreated with modulator ALLN

Structure (SMILES) | AUC HT.ATA | AUC HT.ActD | AUC HT.BHA | AUC HT.BHT | AUC HT.BocD | AUC HT.CHX | AUC HT.Co2+ | AUC HT.CspA | AUC HT.DPQ | AUC HT.Gd3+ | AUC HT.LNAME | AUC HT.Lmim | AUC HT.NAD+ | AUC HT.NMMA | AUC HT.Nec-1 | AUC HT.Pepstatin | AUC HT.SP600125 | AUC HT.TLCK | AUC HT.U0126 | HT.atoc (AUC) | other results
CC(C)C[C@@H](C=O)NC(=O)[C@H](CC(C)C)NC(=O)[C@H](CC(C)C)NC(=O)OCc1ccccc1 [MG132, reference compound] (Cbz-Leu-Leu-Leu-aldehyde) | 0.005768 | −0.06417 | −0.1238 | −0.1271 | 0.002051 | 0.04854 | −0.05705 | −0.3221 | −0.02406 | −0.011 | 5.1006E−05 | 0.001338 | 0.03798 | 0.01064 | −0.09728 | −0.02733 | −0.03431 | 0.01546 | −0.071 | 0.04884 | AUC HT.EGTA: 0.007775; HT.bCarotene (AUC): 7.0861E−05; HT.deferox (AUC): −0.1162; HT.digoxin (AUC): 0.08352; HT.trolox (AUC): −0.01616; HT.zVAD (AUC): −0.0992; AUC, modulator HT.3MA: −0.03392; AUC, modulator HT.ALLN: −0.2149
CC(C)C[C@H](NC(=O)[C@H](CC(C)C)NC(=O)[C@H](CC(C)C)NC(=O)OCc1ccccc1)B(O)O [MG262] | 0.0332 | −0.05854 | −0.0765 | −0.1219 | 0.007582 | −0.003977 | −0.04425 | −0.2145 | 0.008104 | −0.003168 | 0.007002 | 0.001457 | 0.07679 | −0.004229 | −0.06817 | −0.006069 | −0.036 | 0.03566 | −0.06664 | 0.05222 | AUC HT.EGTA (HT-1080, modulator EGTA): −0.001152; HT.bCarotene (AUC): −0.009255; HT.deferox (AUC): −0.08465; HT.digoxin (AUC): 0.05597; HT.trolox (AUC): −0.02068; HT.zVAD (AUC): −0.05837; AUC, modulator HT.3MA: −0.06563; AUC, modulator HT.ALLN: −0.1356
Nc1ccccc1NC(=O)c1ccc(CNC(=O)OCc2cccnc2)cc1 [MS275] | 0.0212 | −0.1982 | −0.04868 | −0.1794 | 0.02448 | −0.1189 | −0.1027 | −0.1886 | −0.01058 | −0.01027 | 0.004204 | −0.09728 | 0.0008794 | −0.00333 | −0.05557 | −0.01654 | −0.09903 | −0.02404 | −0.01884 | −0.01016 | AUC HT.EGTA: −0.005811; HT.bCarotene (AUC): −0.03005; HT.deferox (AUC): −0.1653; HT.digoxin (AUC): −0.1793; HT.trolox (AUC): −0.02599; HT.zVAD (AUC): 0.0222; AUC, modulator HT.3MA: −0.09204; AUC, modulator HT.ALLN: −0.1325
O=C1c2c(O)ccc(O)c2C(=O)c2c(NCCNCCO)ccc(NCCNCCO)c21 [Mitoxantrone] | 0.02422 | −0.02073 | 0.02091 | −0.0249 | 0.06802 | 0.04002 | 0.3817 | −0.1127 | 0.006504 | 0.03227 | 0.01298 | 0.05678 | 0.1502 | 0.0236 | 0.01073 | 0.02067 | −0.01575 | 0.06003 | −0.03205 | 0.04839 | AUC HT.EGTA (HT-1080, modulator EGTA): 0.01802; HT.bCarotene (AUC): −0.003915; HT.deferox (AUC): 0.1001; HT.digoxin (AUC): 0.1321; HT.trolox (AUC): −0.01388; HT.zVAD (AUC): 0.03446; AUC, modulator HT.3MA: 0.02955; AUC, modulator HT.ALLN: 0.07355
[N-]=[N+]=[N-].[Na+] [NaN3] | 0.03107 | 0.1197 | −0.04061 | −0.1432 | 0.008996 | 0.04722 | 0.03941 | −0.04777 | −0.00797 | −0.004604 | −0.01351 | −0.07613 | 0.06683 | 0.002822 | −0.02968 | −0.004337 | −0.004079 | 0.0226 | 0.02567 | −0.031 | AUC HT.EGTA (HT-1080, modulator EGTA): −0.002548; HT.bCarotene (AUC): 0.00681; HT.deferox (AUC): 0.07882; HT.digoxin (AUC): 0.01948; HT.trolox (AUC): −0.001376; HT.zVAD (AUC): 0.01031; AUC, modulator HT.3MA: −0.05719; AUC, modulator HT.ALLN: 0.06335
COc1cc([C@@H]2c3cc4c(cc3[C@H](O)[C@H]3COC(=O)[C@H]23)OCO4)cc(OC)c1OC [Podophyllotoxin] | 0.1206 | −0.0009195 | 0.02739 | 0.0008586 | 0.0984 | 0.07197 | 0.1102 | −0.07592 | 0.005964 | 0.00916 | −0.004926 | 0.1098 | 0.1318 | 0.000472 | −0.0001825 | −0.0005129 | −0.02768 | 0.06978 | 0.1354 | −0.02023 | AUC HT.EGTA (HT-1080, modulator EGTA): 0.01145; HT.bCarotene (AUC): 0.0009225; HT.deferox (AUC): 0.3104; HT.digoxin (AUC): 0.1098; HT.trolox (AUC): 0.0103; HT.zVAD (AUC): 0.09402; AUC, modulator HT.3MA: 0.001351; AUC, modulator HT.ALLN: 0.1572
C=C(C)[C@H]1Cc2c(ccc3c2O[C@@H]2COc4cc(OC)c(OC)cc4[C@@H]2C3=O)O1 [Rotenone] | 0.05899 | 0.1062 | −0.02184 | 0.02467 | 0.05103 | 0.07793 | 0.2003 | −0.1722 | −0.005403 | 0.01051 | −0.007377 | 0.1413 | 0.1563 | 0.007832 | 0.003921 | −0.02255 | −0.01964 | 0.0438 | 0.1384 | 0.04769 | AUC HT.EGTA (HT-1080, modulator EGTA): 0.002258; HT.bCarotene (AUC): 0.003594; HT.deferox (AUC): 0.347; HT.digoxin (AUC): 0.1617; HT.trolox (AUC): 0.003895; HT.zVAD (AUC): 0.01972; AUC, modulator HT.3MA: 0.06289; AUC, modulator HT.ALLN: 0.07973
O=C(CCCCCN1C(=O)c2cccc3cccc(c23)C1=O)NO [Scriptaid] | −0.03873 | −0.1632 | −0.05883 | −0.103 | 0.02828 | −0.1048 | −0.1939 | −0.1413 | −0.00813 | −0.02176 | −0.002637 | −0.05583 | 0.01064 | 0.008869 | −0.05617 | −0.01296 | −0.07 | −0.05575 | −0.04228 | −0.009331 | AUC HT.EGTA (HT-1080, modulator EGTA): −0.01767; HT.bCarotene (AUC): −0.01872; HT.deferox (AUC): −0.1469; HT.digoxin (AUC): −0.08793; HT.trolox (AUC): −0.02986; HT.zVAD (AUC): 0.02988; AUC, modulator HT.3MA: −0.1244; AUC, modulator HT.ALLN: −0.1403
